Consider one compound from patent US20050119194A1, “Methods of using and compositions comprising thalidomide for treatment, modification and management of fibromyalgia” (priority 2003, published 2005).

The test system of the data set is fibromyalgia patients. In words: Clinical studies in fibromyalgia patients. It counts as in vivo, human. The method, then: Pressure of approximate 4 kg/cm^2 is applied manually at multiple anatomic points of patients with fibromyalgia to evaluate pain and tenderness. A useful device for quantitating pain sensitivity is a pressure algometer or dolorimeter. […] Clinical studies are performed in fibromyalgia patients that have not responded to conventional physical therapy and have been present for at least one year. In one embodiment, thalidomide is administered in an amount of 100 to 400 mg per day to patients with fibromyalgia for from three months to one year. A baseline evaluation is performed for the effect of the drug treatment on pain intensity, impact of pain on activities of daily living, and consumption of other pain medications.

Take `O=C1CCC(N2C(=O)c3ccccc3C2=O)C(=O)N1` (racemic) [thalidomide, 2-(2,6-dioxo-3-piperidinyl)-1H-isoindole-1,3(2H)-dione]: the Tolerability of treatment entry (300 mg continuous oral daily dose) is on record as “well-tolerated”. Also, the “Analgesic effect in fibromyalgia” value (100 to 400 mg per day for three months to one year) is recorded as “analgesic benefit”.
